Data reported in patent US20220145264A1, “CULTURE MEDIUM FOR MAMMALIAN EXPANDED POTENTIAL STEM CELLS, COMPOSITION, AND METHODS THEREOF” (THE UNIVERSITY OF HONG KONG, priority 2019, published 2022).
“Also recorded” adds a separate entry of the source.

Assays:
H1-EPSCs = experiment: Requirement of individual culture components for hEPSCs (RT-qPCR, AP+ colony formation); format: cell-based, human
Description: (§1) Porcine and human EPSC cultures were routinely maintained on STO feeders. STO feeder plates were prepared 3-4 days before passaging by thawing and plating the mitomycin C inactivated STO cells on 0.1% gelatinised plates at the density of ˜1.1×10^4 cells/cm^2. Porcine/human EPSC cells were maintained on STO feeder layers and enzymatically passaged every 3-5 days by a brief PBS wash followed by treatment for 3-5 minutes with 0.25% trypsin/EDTA (Gibco, Cat. No. 25500-054). The cells were dissociated and centrifuged (300 g×5 minutes) in M10 medium. M10: knockout DMEM (Gibco, Cat. No. 10829-018), 10% FBS (Gibco, Cat. No. 10270), 1× Glutamine Penicillin-Streptomycin (Thermo Fisher Scientific, Cat. No. 11140050) and 1×NEAA (Thermo Fisher Scientific, Cat. No. 10378-016). After removing supernatant, the porcine/human EPSCs were re-suspended and seeded in pEPSCM/hEPSCM supplemented with 5 μM ROCK inhibitor Y-27632 (Tocris, Cat. No. 1254). 5% FBS (Gibco, Cat. No. 10270) and 10% KnockOut Serum Replacement (KSR) (Gibco, Cat. No. 10828028) were added in pEPSCM and hEPSCM respectively to improve cells survive. 12-24 hours later, medium was switched to pEPSCM/hEPSCM only. Both pEPSCM and hEPSCM are N2B27 based media. N2B27 basal media (500 ml) was prepared by inclusion of the following components: 482.5 ml DMEM/F-12 (Gibco, Cat. No. 21331-020), 2.5 ml N2 supplement (Thermo Fisher Scientific, Cat. No. 17502048), 5 ml B27 supplement (Thermo Fisher Scientific, Cat. No. 17504044), 5 ml 1× Glutamine Penicillin-Streptomycin (Thermo Fisher Scientific, Cat. No. 11140-050), and 5 ml 1×NEAA (Thermo Fisher Scientific, Cat. No. 10378-016), 0.1 mM 2-mercaptoethanol (Sigma, Cat. No. M6250). pEPSCM (500 ml) was generated by adding the following small molecules and cytokines into 500 ml N2B27 basal media: 0.2 μM CHIR99021(GSK3i, TOCRIS, Cat. No. 4423), 1 μM WH-4-023 (SRC inhibitor, TOCRIS, Cat. No. 5413), 2.5 μM XAV939 (Sigma, Cat. No. X3004) or 2.5 μM IWR-1 (TOCRIS, Cat. No. 3532), […] Vitamin C (Sigma, Cat. No. 49752-100G), 10 ng/ml LIF (Stem Cell Institute, University of Cambridge. SCI) and 20 ng/ml ACTIVIN (SCI). hEPSCM (500 ml) was generated by adding the following components into 500 ml N2B27 basal media: 1.0 μM CHIR99021(GSK3 inhibitor, TOCRIS, Cat. No. 4423), 0.5 μM A-419259 (SRC inhibitor, TOCRIS, Cat. No. 3914), 2.5 μM XAV939 (Sigma, Cat. No. X3004), […] Vitamin C (Sigma, Cat. No. 49752-100G), 10 ng/ml LIF (SCI). Although both targeting SRC family kinases (SFKs), WH-4-023 and A419259 were preferred for porcine and human EPSCs, respectively. […] The concentrations of CHIR99021 for porcine and human EPSC cultures are 0.2 μM and 1.0 μM, respectively. […] 0.25 μM SB 590885 (BRAF inhibitor, R&D, Cat. No. 2650) and 2.0 μM SP600125 ([…], TOCRIS, Cat. No. 1496) were included to improve porcine and human EPSC cultures, but they were not essential for the routine maintenance of porcine and human EPSCs. All cell cultures in this paper were performed under conditions of 37° C. and 5% CO2 unless stated otherwise.
(§2) Total RNA was isolated using an RNeasy Mini Kit (Qiagen, Cat. No. 74106) for cultured cells or RNeasy Micro Kit (Qiagen, Cat. No. 74034) for sorted NANOS3-mCherry^+ cells. RNA was subsequently quantified and treated with gDNA WipeOut to remove genomic DNA. Complementary DNA (cDNA) was prepared using a QuantiTect Reverse Transcription Kit (Qiagen, Cat. No. 205311). RT-qPCR primers or TaqMan Gene Expression Assays (Life Technologies) are listed in Supplementary Table 10 and 11. ABsolute Blue qPCR ROX Mix (ABgene, Cat. No. AB4138B) were used for probe based qPCR assays and SYBR Green ROX qPCR Mastermix (Qiagen, Cat. No. 330523) were used for primer based qPCR assays. All qPCR reactions were performed on ABI 7900 HT Sequence Detection System (Life Technologies). Information on all primers and probes used for qPCR analysis are provided in Supplementary Table 10 and 11. Gene expression was determined relative to GAPDH using the […]. […]

[1] = tested on: NANOS3-H2BmCherry reporter pEPSCs^Emb; experiment: Induction of pPGCLCs from NANOS3-H2BmCherry reporter pEPSCs (EBs, FACS); format: cell-based, porcine; settings: inhibition of BMP2/4 signaling in EB culture
Description: To analyse the contribution of donor mCherry^+ porcine EPSCs in day 25-27 chimeras, the half fetuses were dissected into small pieces representing several body parts (head, trunk and tail). The dissected tissues and placenta were digested with 1.0 mg/ml collagenase IV (Thermo Fisher Scientific, Cat. No. 17104019) for 1-3 hours at 37° C. on a shaker. A pipette was used to blow the tissue blocks and dissociate them into single cells. The dissociated cells were filtered with a 35 μm nylon mesh (Corning, Cat. No. 352235) to remove tissues clumps. After centrifugation, the cells were fixed using Fixation Medium according to the manufacturers' manual (BD Cytofix, Cat. No. 554655) and the washed cells were stored at 4° C. in PBS supplemented with 0.1% NaN3 (Sigma, Cat. No. 199931) and 5% FBS (Gibco, Cat. No. 10270) before analysed with flow cytometry. All the samples were analysed using BD LSR Fortessa cytometer. 561 nm (610/20 bandpass filter) and 488 nm (525/50 bandpass filter) channels were used to detect mCherry and excluded autofluorescence. PGC EBs were trypsinized with 0.25% trypsin/EDTA Gibco, Cat. No. 25500-054) at 37° C. for 15 mins and stained with PerCP-Cy5.5 conjugated anti-TNAP antibody. 561 nm (610/20 bandpass filter) and 488 nm (710/50 bandpass filter) channels were used to detect NANOS3-H2BmCherry^+/TNAP^+ cells. FACS data were analysed by Flowjo software. […]

pEPSCs^Emb = experiment: Requirement of individual culture components for pEPSCs (RT-qPCR, AP+ colony formation); format: cell-based, porcine; settings: for number of colonies from single cells / pluripotency gene expression: removing the component from pEPSCM
Description: as §1, §2

human EPSCs = experiment: Differentiation of human EPSCs to trophoblast lineages (CDX2-H2B-Venus reporter flow cytometry, RT-qPCR); format: cell-based
Description: hEPSCs were dissociated with 0.25% trypsin/EDTA and seeded in gelatinised 6-well plates at a density of 0.1×10^6 cells/well. The cells were cultured in 20% KSR media supplemented with 5 μM ROCK inhibitor Y-27632 for 1 day. 20% KSR media: DMEM/F-12 (Gibco, Cat. No. 21331-020), 20% KnockOut Serum Replacement (KSR) (Gibco, Cat. No. 10828-028), 1× glutamine penicillin-streptomycin (Thermo Fisher Scientific, Cat. No. 11140-050), 1×NEAA (Thermo Fisher Scientific, Cat. No. 10378-016) and 0.1 mM 2-mercaptoethanol (Sigma, Cat. No. M6250). From the second day, different combinations of the TGFβ inhibitor SB431542 (10 μM, Tocris, Cat. No. 1514), BMP4 (50 ng/ml, R&D, Cat. No. 5020-BP) and the FGF receptor inhibitor PD173074 (0.1 μM, Tocris, Cat. No. 3044) were added into 20% KSR media to start the trophoblast differentiation. The cells were collected at indicated time points for analysis.

With CN1CCN(C2CCC(n3cc(-c4ccc(Oc5ccccc5)cc4)c4c(N)ncnc43)CC2)CC1 (stereo not shown) [A419259] the “expression of pluripotency factors” value (H1-EPSCs; removal of the SRC inhibitor, human EPSCs) was “reduced expression of pluripotency factors”.

In the case of c1ccc2c(-c3cnn4cc(-c5ccc(N6CCNCC6)cc5)cnc34)ccnc2c1 [LDN-193189], the “formation of mCherry+/TNAP+ cell clusters” value [1] is reported as “abrogated”.

For NC(=O)c1ccc(-c2nc(-c3ccc4c(c3)OCO4)c(-c3ccccn3)[nH]2)cc1 [SB431542], the “cell survival and pluripotency factor expression” value (pEPSCs^Emb; adding the TGFβ inhibitor to pEPSCM) was “massive cell loss and down-regulation of pluripotency factors”, the cell differentiation (H1-EPSCs; adding the TGFβ inhibitor, human EPSCs) was “induced rapid cell differentiation” and the “CDX2 reporter cells being CDX2-Venus+” value (human EPSCs; TGFβ inhibition, cells collected 4 days after) was 70%.

COc1ccc(N(C(=O)Oc2c(C)cccc2C)c2ccnc(Nc3ccc(N4CCN(C)CC4)cc3)n2)c(OC)c1 [WH-4-023] was tested, and the “expression of pluripotency factors” value (pEPSCs^Emb; removal of the SRC inhibitor, porcine EPSCs) was “reduced expression of pluripotency factors” and the pluripotency gene expression (H1-EPSCs; WH-4-023 used instead of A419259 in human EPSCs) was “lower pluripotency gene expression”.

O=C1O[C@H]([C@@H](O)CO)C(O)=C1O [Vitamin C] was tested, and the “number of colonies from single cells” value (pEPSCs^Emb) was “reduced” and the pluripotency gene expression (pEPSCs^Emb) was “did not affect”.

For Cc1c[nH]c(-c2cnc(NCCNc3ccc(C#N)cn3)nc2-c2ccc(Cl)cc2Cl)n1 [CHIR99021], the “differentiation of EPSCs” value (pEPSCs^Emb; high concentration 3.0 μM, porcine EPSCs) was “induced differentiation; also recorded: induces porcine and human EPSC differentiation”, the proliferation (pEPSCs^Emb; porcine EPSCs) was “improved proliferation” and the “number of colonies from single cells” value (pEPSCs^Emb) was “reduced”. For the same molecule, the pluripotency gene expression (pEPSCs^Emb) was “did not affect”, the “differentiation of EPSCs” value (H1-EPSCs; high concentration 3.0 μM, human EPSCs) was “induced differentiation; also recorded: induces porcine and human EPSC differentiation” and the proliferation (H1-EPSCs; human EPSCs) was “improved proliferation”.

B1: BMP4: cytokine (R&D, Cat. No. 5020-BP) promoting differentiation of human ESCs to putative trophoblasts (protein, UniProt P21275 293-408, looked up)
Bone morphogenetic protein 4: SPKHHPQRSRKKNKNCRRHSLYVDFSDVGWNDWIVAPPGYQAFYCHGDCPFPLADHLNSTNHAIVQTLVNSVNSSIPKACCVPTELSAISMLYLDEYDKVVLKNYQEMVVEGCGCR
B1 was tested, and the “expression of trophoblast genes” value (human EPSCs; 4-day BMP4 treatment, H1-EPSCs and iPSC-EPSCs versus H1-ESCs or H1-5i naïve ESCs) was “induced expression of trophoblast genes”.
